Tests used:
[1] = system: subcutaneously implanted A375 tumours (BRAF V600E); assay: Subcutaneous A375 luc melanoma model (peripheral disease); type: in vivo, mice
Excerpt: (§1) All animal experiments were approved by and performed according to the guidelines of the Institutional Animal Care Committee of the Vall d'Hebron Research Institute in agreement with the European Union and national directives. Female and male NOD scid gamma (NSG) mice of 4 to 5-week-old were purchased from Charles River.
For subcutaneous model, 5×10^6 A375 melanoma cells were subcutaneously injected into one flank of mice. Tumour growth was monitored with a Calipher.
The A375 cell line presenting BRAF V600E was used as melanoma model. The cell line was stably transduced with a luciferase expressing vector to facilitate tumor size monitoring. A375 luc were implanted subcutaneously to mimic peripheral disease and then randomized when tumors reached 100-300 mm^3. (10 mice/group). The mice were administered either Vehicle, Compound Ia 10 mg/kg (QD PO) or dabrafenib 100 mg/kg (QD PO). In a fourth treatment cohort, dabrafenib 100 mg/kg (QD PO) was administered until tumor relapse occurred, at which point dabrafenib treatment was discontinued and mice were instead treated with Compound Ia 10 mg/kg (QD PO).

[2] = system: intracranially implanted A375 tumours (BRAF V600E); assay: Intracranial A375 luc melanoma model (brain metastatic setting); type: in vivo, mice
Excerpt: as §1
For intracranial models, 5×10^5 A375 luc cells were stereotactically inoculated into the corpus striatum of the right brain hemisphere (1 mm anterior and 1.8 mm lateral to the […]; 2.5 mm intraparenchymal) of mice. Brain implanted tumors were monitored through regular Bioluminescence (BLI) signal detection and a relapse was determined upon observation of a progressive gradual increase of BLI signal.
The A375 cell line presenting BRAF V600E was used as melanoma model. The cell line was stably transduced with a luciferase expressing vector to facilitate tumor size monitoring. […] Brain implanted tumors were monitored through regular Bioluminescence (BLI) signal detection and a relapse was determined upon observation of a progressive gradual increase of BLI signal. […]
The A375 cell line presenting BRAF V600E was used as melanoma model. […] Brain implanted tumors were monitored through regular Bioluminescence (BLI) signal detection and a relapse was determined upon observation of a progressive gradual increase of BLI signal (total flux (p/s) was used to estimate tumour size). […]

[3] = system: primary tumors from brain metastatic lesions progressing on BRAFi monotherapy or combination therapy with a MEKi; assay: In vivo testing in primary tumors from brain metastatic lesions progressing on BRAFi or BRAFi/MEKi
[4] = relapse under dabrafenib 100 mg/kg QD PO, caliper

Structure (SMILES) | Tumour size in relapse (mean value) [1, 4] | Tumour size in relapse (range) [1, 4] | responses, peripheral lesions ([1]; peripheral compartment) | responses upon relapse to available BRAFi ([1]; switch to Compound Ia after relapse, peripheral lesions) | responses, brain metastatic lesions ([2]; brain compartment) | responses upon relapse to available BRAFi and BRAFi/MEKi co-treatment ([2]; switch to Compound Ia after relapse, brain lesions) | antitumor activity [3]
CC(C)(C)c1nc(-c2cccc(NS(=O)(=O)c3c(F)cccc3F)c2F)c(-c2ccnc(N)n2)s1 [dabrafenib, reference compound] | 558 mm^3 | 300-700 mm3 | – | – | – | – | –
Cn1cnc2ccc(Oc3c(F)ccc(NS(=O)(=O)N4CC[C@@H](F)C4)c3C#N)cc2c1=O [Compound Ia, (3R)—N-[2-cyano-4-fluoro-3-(3-methyl-4-oxo-quinazolin-6-yl)oxy-phenyl]-3-fluoro-pyrrolidine-1-sulfonamide] | – | – | long lasting responses | dramatic responses | long lasting responses | dramatic responses | potent antitumor activity
